In patent publication US5366980A, “Use of dextromethorphan and an oxidase inhibitor to treat dermatitis” (priority 1993, dated 1994):
Several values for one entry are separate records, joined by “and”; a condition that tells them apart may be missing. Equal values may be shown once. Entries after “also recorded” stand apart in the source; their conditions may differ. Where a name gives a salt, the structure may show the parent alone.

What was measured:
debrisoquin hydroxylase [1] = assay: Urinary DM/DR ratio with other antioxidants in specific patients (Example 5)
Description: The second method involves sampling body fluids to compare the concentrations of DM and its primary metabolite, dextrorphan (DR). Although blood concentrations can be directly evaluated by drawing blood samples if desired, an easier and painless approach is to analyze urine samples. Blood or urine samples can be processed using methods such as high performance liquid chromatography (HPLC), as described in Example 5. […] The height of each peak, or the area under each peak, will indicate the quantity of each compound in the blood or urine sample. The heights of the DM and DR peaks are then divided, to determine the DM/DR ratio. The ratio which occurs after administration of a candidate antioxidant drug is compared to the DM/DR ratio in the same patient under control conditions (i.e., before administration of any antioxidant).
Preliminary Analysis of Other Antioxidants
To further evaluate that possibility, the Applicant arranged for chemical analyses of urine samples, using HPLC, in the labs of an independent investigator.

[2] = system: debrisoquin hydroxylase (sparteine monooxygenase); details: Inaba et al 1985, cited from earlier work
sigma receptors = details: reportedly; cited from earlier work
[3] = system: N-methyl-D-aspartate (NMDA) receptors; details: reportedly; cited from earlier work
[4] = system: neuronal calcium channels; details: reportedly; Carpenter et al 1988; cited from earlier work
debrisoquin hydroxylase [5] = assay: Urinary DM/DR ratio after oral dextromethorphan without and with quinidine (Example 1); type: in vivo, human; details: 150 mg quinidine + 60 mg DM
Description: Since the research that led to this invention was done by a neurologist who was initially interested in finding out whether DM might be able to retard the progress of ALS, the initial studies were done on patients suffering from ALS, most of whom are adults more than 50 years old.
Six patients suffering from ALS were administered orally a single 60 mg dextromethorphan dose. Several hours later, a urine sample was collected, and the urine concentrations of dextromethorphan (DM) and dextrorphan (DR) were measured as described below to determine a DM/DR ratio. […] In a different week, 60 mg of DM and 150 mg of quinidine were orally administered to the same patients, and urinary DM and DR levels and DM/DR ratios were determined again.
DM and DR urinary levels without quinidine were determined by adding […] of thebaine as an internal standard to 1 mL of urine. To this was added 2000 units of beta-glucuronidase in 1 mL of acetate buffer (0.1M, pH 5.0). The mixture was incubated for 18 hours at 37° C. and then extracted by adding 1 mL of phosphate buffer (pH 12, 0.10M) and 7 mL of n-butanol/hexane (10:90 v/v). After mixing and centrifugation, the organic layer was transferred to a clean tube and acidified with 400 uL of 0.01 N HCL. 20 microliters (uL) of aqueous phase was injected into a high performance liquid chromatography (HPLC) system. The HPLC used a phenyl column equilibrated with a mobile phase of acetonitrile:water (51:49, v/v) containing 10 mM KHPO4, 10 mM hexane sulfonic acid, pH 4.0 (flow rate 1.2 mL/min). Detection of thebaine, dextromethorphan and dextrorphan was achieved by fluorescence (Kratos FS-980 Fluorometer) with an excitation wavelength of 228 nm and no emission cutoff filter.
A gas chromatograph/mass spectroscopy (gc/ms) assay was employed for determining dextromethorphan and dextrorphan levels in the presence of quinidine. Briefly, 0.5 ml urine samples were spiked with 500 nanograms (ng) of dimethacrine. The urine pH was adjusted to 5.0 with 0.1M acetate buffer (usually about 1.0 ml), and beta-glucuronidase was added (2000 units/ml urine). […]

[6] = Plasma concentration of DM 10-12 hours after oral dosing, without and with quinidine (Examples 2 and 3); type: in vivo, human; details: effect of quinidine on plasma DM, words
Description: Plasma Concentrations of DM
Five patients were orally administered 120 mg of DM, with no co-administration of quinidine. Between 10 and 12 hours later, blood was sampled, blood plasma was isolated by centrifugation, and the plasma was analyzed to determine the DM concentration using the thebaine/HPLC method.
During a different week, the same patients were orally administered 60 mg of DM (half the control dosage) and 150 mg of quinidine. Between 10 and 12 hours later, blood was sampled and the plasma was analyzed for DM using thebaine/HPLC.
Additional studies were undertaken using a range of dosages of DM to establish a dose-response curve that correlates the quantity of DM orally administered to a patient with blood plasma concentrations 10 to 12 hours later (determined as described in Example 2). All patients received 150 mg of quinidine daily. The results of those studies are shown in graphical form in FIG. 2, with mean values shown as open squares and standard deviation ranges shown by vertical bars. The ascending line through the median values is a linear approximation; a curve based on more extensive data would probably show a horizontal asymptote.

liver cell preparations = details: Broly et al 1989; cited from earlier work
ALS patients = details: DM up to about 300 mg/day or higher; quinidine in prolonged QT interval; cited from earlier work

Row | SMILES | In vitro activity in inhibiting debrisoquin hydroxylase [2] | further results
1 | C=C[C@H]1C[N@@]2CC[C@H]1C[C@H]2[C@H](O)c1ccnc2ccc(OC)cc12 [quinine sulfate] | – | DM/DR ratio (antioxidant) (debrisoquin hydroxylase [1]; urine, HPLC, antioxidant in brackets, preliminary, one value per patient): 0.09 and 0.05
2 | Cc1cccc(C)c1OCC(C)N (stereo not drawn) [mexiletine] | significant in vitro activity | –
3 | CNCCC(Oc1ccc(C(F)(F)F)cc1)c1ccccc1 (stereo not drawn) [fluoxetine] | – | Effect on DM concentrations in the blood / debrisoquin hydroxylase oxidative activity (debrisoquin hydroxylase [1]; ALS patient taking fluoxetine, research by the Applicant): can suppress the oxidative activity of the debrisoquin hydroxylase enzyme, albeit at a potency substantially below that of quinidine; also recorded: effective in increasing DM concentrations in the blood
4 | CN1[C@@H](CC(=O)c2ccccc2)CCC[C@H]1C[C@H](O)c1ccccc1 [lobeline] | significant in vitro activity; also recorded: relatively potent | –
5 | C=C[C@H]1C[N@@]2CC[C@H]1C[C@H]2[C@H](O)c1ccnc2ccc(OC)cc12 [quinine] | significant in vitro activity | –
6 | CC(CCc1ccccc1)NCC(O)c1ccc(O)c(C(N)=O)c1 (stereo not drawn) [labetalol] | significant in vitro activity | –
7 | CC[C@H]1[C@@H]2C[C@H]3[C@@H]4N(C)c5ccccc5[C@]45C[C@@H]([C@H]2[C@H]5O)N3[C@@H]1O [ajmaline] | significant in vitro activity; also recorded: relatively potent | –
8 | COC(=O)[C@@H]1[C@H]2C[C@H]3c4[nH]c5ccccc5c4CCN3C[C@@H]2CC[C@@H]1O [yohimbine] | significant in vitro activity; also recorded: relatively potent | –
9 | O=C(CCCN1CCC(O)(c2ccc(Cl)cc2)CC1)c1ccc(F)cc1 [haloperidol] | significant in vitro activity; also recorded: relatively potent | –
10 | CC(C)NCC(O)COc1cccc2ccccc12 (stereo not drawn) [propranolol] | significant in vitro activity | –
11 | CN1CC[C@@]23CCCC[C@@H]2[C@@H]1Cc1ccc(O)cc13 [dextrorphan] | – | Activity at sigma receptors (sigma receptors): sigma agonists; Activity at NMDA receptors [3]: NMDA antagonists; Activity at neuronal calcium channels [4]: calcium channel antagonists
12 | COCCc1ccc(OCC(O)CNC(C)C)cc1 (racemic) [metaprolol] | significant in vitro activity | –
13 | C=CCOc1ccccc1OCC(O)CNC(C)C (stereo not drawn) [oxprenolol] | significant in vitro activity | –
14 | O=c1[nH]c2ccccc2n1CCCN1CCC(n2c(=O)[nH]c3cc(Cl)ccc32)CC1 [domperidone] | significant in vitro activity | –
15 | COc1ccc(Cc2nccc3cc(OC)c(OC)cc23)cc1OC [papaverine] | significant in vitro activity | –
16 | NC(=O)C1(N2CCCCC2)CCN(CCCC(=O)c2ccc(F)cc2)CC1 [pipamperone] | significant in vitro activity; also recorded: relatively potent | –
17 | C=C[C@H]1C[N@@]2CC[C@H]1C[C@@H]2[C@@H](O)c1ccnc2ccc(OC)cc12 [quinidine] | most powerful of these inhibitors; also recorded: most potent inhibitor of the sparteine monooxygenase enzyme; also recorded: potent inhibitor of the debrisoquin hydroxylase enzyme | Increase of DM/DR ratio, all test subjects (debrisoquin hydroxylase [5]; all test subjects): at least 2 orders of magnitude; Increase of DM/DR ratio, usually (debrisoquin hydroxylase [5]; usual case): more than 3 orders of magnitude; DM plasma level, with or without quinidine [6]: major increase in the concentration of DM in the blood plasma; also recorded: pronounced effect in increasing and stabilizing the quantity of DM circulating in the blood; also recorded: highly effective in increasing DM concentrations; Ki ([2]; in vitro, read-out: Ki (Michaelis-Menton inhibition)): 60 nM; DM oxidation / metabolism in liver cell preparations (liver cell preparations): suppresses DM oxidation in liver cell preparations; Adverse effects (general knowledge) (ALS patients): cardiac arrest (which can be fatal)
18 | CC(C)(C)NC[C@H](O)COc1nsnc1N1CCOCC1 [timolol] | significant in vitro activity | –
19 | CNCCC=C1c2ccccc2CCc2ccccc21 [nortriptyline] | significant in vitro activity | –
